Laboratory results: the supplement of paper PMC10331698
± gives the standard deviation of the averaged measurements.

How the values were obtained:
Experiment in all cases: level (log10 ratio to DMSO vehicle control); higher = higher biomarker level / cell amount than vehicle control
[1] = compound: O=P(O)(O)CCC(F)(F)C(F)(F)C(F)(F)C(F)(F)C(F)(F)C(F)(F)F [2-(Perfluorohexyl)ethylphosphonic acid]; conditions: in DMSO
Procedure: (§1)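 BioMAP Diversity Plus panel of 12 human primary cell co-culture systems (3C, 4H, LPS, SAg, BT, BF4T, BE3C, CASM3C, HDF3CGF, KF3CT, MyoF, Mphg). Compounds were added 1 h before stimulation and left for 24 h (MyoF 48 h; BT 72 h for soluble read-outs or 6 d for IgG). Biomarkers were read by ELISA, cytotoxicity by SRB, PBMC viability and proliferation by Alamar Blue. Each well value was divided by the mean of 8 DMSO control wells on the same plate and log10 transformed; duplicate blinded samples were tested at 4 concentrations.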

[2] = compound: O=C(O)C(F)(F)C(F)(F)C(F)(F)C(F)(F)C(F)(F)C(F)(F)C(F)(F)F [Ammonium perfluorooctanoate]; conditions: in DMSO
Procedure: as §1

[3] = compound: C=CC(=O)OCCC(F)(F)C(F)(F)C(F)(F)C(F)(F)C(F)(F)C(F)(F)C(F)(F)C(F)(F)F [8:2 Fluorotelomer acrylate]; conditions: in DMSO
Procedure: as §1

[4] = compound: C=CC(=O)OCC(F)(F)C(F)(F)C(F)(F)C(F)(F)COC(=O)C=C [1H,1H,6H,6H-Perfluorohexane-1,6-diol diacrylate]; conditions: 6700 nM; in DMSO
Procedure: as §1

[5] = compound: O=C(CC(=O)C(F)(F)C(F)(F)C(F)(F)F)c1cccs1 [(Perfluorobutyryl)-2-thenoylmethane]; conditions: in DMSO
Procedure: as §1

[6] = compound: C=CC(=O)OCC(F)(F)C(F)(F)C(F)(F)C(F)(F)C(F)(F)C(F)(F)C(F)(F)C(F)F [1H,1H,9H-Perfluorononyl acrylate]; conditions: in DMSO
Procedure: as §1

Perfluoropinacol = compound: OC(C(F)(F)F)(C(F)(F)F)C(O)(C(F)(F)F)C(F)(F)F [Perfluoropinacol]; conditions: in DMSO
Procedure: as §1

[7] = compound: FC(F)(I)C(F)(F)C(F)(F)C(F)(F)C(F)(F)C(F)(F)I [1,6-Diiodoperfluorohexane]; conditions: 6700 nM; in DMSO
Procedure: as §1

KF3CT:PAI-I
level (log10) ([1]; 6700 nM): -0.033 ± 0.037
level (log10) ([1]; 20000 nM): -0.0505 ± 0.028
level (log10) ([1]; 60000 nM): -0.039 ± 0.025
level (log10) ([2]; 6700 nM): -0.0015 ± 0.0021
level (log10) ([2]; 20000 nM): -0.018 ± 0.0099
level (log10) ([2]; 60000 nM): -0.01 ± 0.0099
level (log10) ([3]; 6700 nM): -0.009 ± 0.014
level (log10) ([3]; 20000 nM): 0.0155 ± 0.012
level (log10) ([3]; 60000 nM): 0.001 ± 0.0085
level (log10) [4]: 0.048 ± 0.0071
level (log10) ([5]; 6700 nM): -0.035 ± 0.0071
level (log10) ([5]; 20000 nM): -0.058 ± 0.013
level (log10) ([6]; 6700 nM): -0.017
level (log10) ([6]; 20000 nM): -0.023 ± 0.042
level (log10) ([6]; 60000 nM): -0.0465 ± 0.022
level (log10) (Perfluoropinacol; 6700 nM): 0.001 ± 0.0042
level (log10) (Perfluoropinacol; 20000 nM): -0.0435 ± 0.012
level (log10) [7]: -0.117

3C:CD141/Thrombomodulin
level (log10) ([1]; 6700 nM): 0.01 ± 0.024
level (log10) ([1]; 20000 nM): 0.02 ± 0.051
level (log10) ([1]; 60000 nM): 0.0895 ± 0.044
level (log10) ([2]; 6700 nM): -0.01 ± 0.017
level (log10) ([2]; 20000 nM): -0.0185 ± 0.012
level (log10) ([2]; 60000 nM): -0.0375 ± 0.032
level (log10) ([3]; 6700 nM): -0.0015 ± 0.036
level (log10) ([3]; 20000 nM): -0.0295 ± 0.0035
level (log10) ([3]; 60000 nM): 0.023 ± 0.072
level (log10) [4]: -0.079 ± 0.021
level (log10) ([5]; 6700 nM): -0.113 ± 0.081
level (log10) ([5]; 20000 nM): -0.071 ± 0.05
level (log10) ([6]; 6700 nM): -0.042 ± 0.0028
level (log10) ([6]; 20000 nM): -0.076 ± 0.028
level (log10) ([6]; 60000 nM): -0.114 ± 0.016
level (log10) (Perfluoropinacol; 6700 nM): -0.0165 ± 0.0021
level (log10) (Perfluoropinacol; 20000 nM): -0.033 ± 0.034
level (log10) [7]: -0.003

MyoF:Decorin
level (log10) ([1]; 6700 nM): -0.0035 ± 0.023
level (log10) ([1]; 20000 nM): 0.0075 ± 0.0021
level (log10) ([1]; 60000 nM): 0.0385 ± 0.00071
level (log10) ([2]; 6700 nM): 0.0055 ± 0.0035
level (log10) ([2]; 20000 nM): 0.0075 ± 0.00071
level (log10) ([2]; 60000 nM): -0.0355 ± 0.057
level (log10) ([3]; 6700 nM): -0.0175 ± 0.0078
level (log10) ([3]; 20000 nM): -0.0185 ± 0.0078
level (log10) ([3]; 60000 nM): -0.016 ± 0.017
level (log10) [4]: -0.083 ± 0.011
level (log10) ([5]; 6700 nM): 0.0045 ± 0.011
level (log10) ([5]; 20000 nM): 0.0285 ± 0.022
level (log10) ([6]; 6700 nM): -0.014 ± 0.024
level (log10) ([6]; 20000 nM): -0.0655 ± 0.0021
level (log10) ([6]; 60000 nM): -0.065 ± 0.052
level (log10) (Perfluoropinacol; 6700 nM): -0.041 ± 0.024
level (log10) (Perfluoropinacol; 20000 nM): -0.034 ± 0.025
level (log10) [7]: 0.021

3C:CD54/ICAM-1
level (log10) ([1]; 6700 nM): -0.0165 ± 0.012
level (log10) ([1]; 20000 nM): -0.018 ± 0.0014
level (log10) ([1]; 60000 nM): -0.0095 ± 0.005
level (log10) ([2]; 6700 nM): 0.004 ± 0.014
level (log10) ([2]; 20000 nM): 0.0065 ± 0.0064
level (log10) ([2]; 60000 nM): 0.0065 ± 0.00071
level (log10) ([3]; 6700 nM): -0.009 ± 0.02
level (log10) ([3]; 20000 nM): -0.0205 ± 0.018
level (log10) ([3]; 60000 nM): 0.002 ± 0.0085
level (log10) [4]: -0.028 ± 0.0085
level (log10) ([5]; 6700 nM): -0.027 ± 0.021
level (log10) ([5]; 20000 nM): -0.0365 ± 0.00071
level (log10) ([6]; 6700 nM): -0.009 ± 0.0057
level (log10) ([6]; 20000 nM): -0.0085 ± 0.012
level (log10) ([6]; 60000 nM): -0.0105 ± 0.015
level (log10) (Perfluoropinacol; 6700 nM): 0.0055 ± 0.0021
level (log10) (Perfluoropinacol; 20000 nM): -0.0005 ± 0.021
level (log10) [7]: 0.03

KF3CT:CXCL10/IP-10
level (log10) ([1]; 6700 nM): -0.009 ± 0.0057
level (log10) ([1]; 20000 nM): 0.0035 ± 0.0078
level (log10) ([1]; 60000 nM): 0.0045 ± 0.005
level (log10) ([2]; 6700 nM): -0.0025 ± 0.00071
level (log10) ([2]; 20000 nM): -0.0045 ± 0.005
level (log10) ([2]; 60000 nM): -0.007 ± 0.0014
level (log10) ([3]; 6700 nM): -0.007 ± 0.0057
level (log10) ([3]; 20000 nM): -0.0125 ± 0.0021
level (log10) ([3]; 60000 nM): -0.0135 ± 0.00071
level (log10) [4]: -0.0365 ± 0.005
level (log10) ([5]; 6700 nM): -0.0205 ± 0.00071
level (log10) ([5]; 20000 nM): -0.018 ± 0.0014
level (log10) ([6]; 6700 nM): -0.003 ± 0.024
level (log10) ([6]; 20000 nM): -0.01 ± 0.017
level (log10) ([6]; 60000 nM): -0.015 ± 0.0099
level (log10) (Perfluoropinacol; 6700 nM): 0.0025 ± 0.0035
level (log10) (Perfluoropinacol; 20000 nM): -0.0205 ± 0.0064
level (log10) [7]: -0.005

HDF3CGF:CD54/ICAM-1
level (log10) ([1]; 6700 nM): 0.045 ± 0.04
level (log10) ([1]; 20000 nM): 0.0145 ± 0.059
level (log10) ([1]; 60000 nM): 0.0065 ± 0.044
level (log10) ([2]; 6700 nM): -0.0145 ± 0.015
level (log10) ([2]; 20000 nM): -0.043 ± 0.0057
level (log10) ([2]; 60000 nM): -0.054 ± 0.016
level (log10) ([3]; 6700 nM): 0.034 ± 0.04
level (log10) ([3]; 20000 nM): 0.044 ± 0.059
level (log10) ([3]; 60000 nM): 0.0395 ± 0.088
level (log10) [4]: -0.175 ± 0.038
level (log10) ([5]; 6700 nM): -0.0475 ± 0.011
level (log10) ([5]; 20000 nM): -0.0295 ± 0.0064
level (log10) ([6]; 6700 nM): -0.021 ± 0.018
level (log10) ([6]; 20000 nM): -0.0435 ± 0.00071
level (log10) ([6]; 60000 nM): -0.0765 ± 0.042
level (log10) (Perfluoropinacol; 6700 nM): 0.012 ± 0.011
level (log10) (Perfluoropinacol; 20000 nM): 0.005 ± 0.018
level (log10) [7]: -0.343

KF3CT:SRB
level (log10) ([1]; 6700 nM): -0.0015 ± 0.0035
level (log10) ([1]; 20000 nM): -0.011 ± 0.0028
level (log10) ([1]; 60000 nM): -0.007 ± 0.013
level (log10) ([2]; 6700 nM): -0.0125 ± 0.0035
level (log10) ([2]; 20000 nM): -0.0115 ± 0.0021
level (log10) ([2]; 60000 nM): -0.0195 ± 0.0021
level (log10) ([3]; 6700 nM): -0.0005 ± 0.005
level (log10) ([3]; 20000 nM): 0.002 ± 0.0085
level (log10) ([3]; 60000 nM): 0.0105 ± 0.013
level (log10) [4]: 0.003 ± 0.0057
level (log10) ([5]; 6700 nM): -0.008
level (log10) ([5]; 20000 nM): -0.0105 ± 0.005
level (log10) ([6]; 6700 nM): 0.003 ± 0.0014
level (log10) ([6]; 20000 nM): -0.002 ± 0.0085
level (log10) ([6]; 60000 nM): 0.0045 ± 0.018
level (log10) (Perfluoropinacol; 6700 nM): -0.004 ± 0.0042
level (log10) (Perfluoropinacol; 20000 nM): -0.014 ± 0.02
level (log10) [7]: -0.288

lMphg:CCL2/MCP-1
level (log10) ([1]; 6700 nM): -0.004 ± 0.0071
level (log10) ([1]; 20000 nM): 0.01 ± 0.0042
level (log10) ([1]; 60000 nM): -0.0105 ± 0.005
level (log10) ([2]; 6700 nM): 0.0045 ± 0.016
level (log10) ([2]; 20000 nM): 0.005 ± 0.016
level (log10) ([2]; 60000 nM): 0.0065 ± 0.0021
level (log10) ([3]; 6700 nM): 0.0035 ± 0.021
level (log10) ([3]; 20000 nM): -0.0025 ± 0.0064
level (log10) ([3]; 60000 nM): -0.0235 ± 0.039
level (log10) [4]: -0.04 ± 0.061
level (log10) ([5]; 6700 nM): -0.047 ± 0.031
level (log10) ([5]; 20000 nM): -0.27 ± 0.056
level (log10) ([6]; 6700 nM): -0.009 ± 0.0099
level (log10) ([6]; 20000 nM): -0.025 ± 0.021
level (log10) ([6]; 60000 nM): -0.041 ± 0.055
level (log10) (Perfluoropinacol; 6700 nM): 0.0265 ± 0.028
level (log10) (Perfluoropinacol; 20000 nM): -0.148 ± 0.0014
level (log10) [7]: -0.029
